The source of these data is patent US12378249B2, “Isoquinoline compounds and uses thereof” (Genentech, Inc., priority 2018, dated 2025).

Sequence of HPK1 (Homo sapiens (Human), UniProt Q92918) (Q92918 1-346): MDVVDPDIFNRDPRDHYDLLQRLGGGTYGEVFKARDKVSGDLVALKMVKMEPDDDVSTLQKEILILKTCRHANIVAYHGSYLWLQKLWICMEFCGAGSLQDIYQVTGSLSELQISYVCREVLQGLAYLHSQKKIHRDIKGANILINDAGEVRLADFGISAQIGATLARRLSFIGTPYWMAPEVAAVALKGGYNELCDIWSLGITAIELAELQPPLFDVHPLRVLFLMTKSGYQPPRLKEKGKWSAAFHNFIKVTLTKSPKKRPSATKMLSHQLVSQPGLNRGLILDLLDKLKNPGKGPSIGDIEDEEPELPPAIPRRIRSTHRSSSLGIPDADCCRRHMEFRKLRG
Sequence of HPK1 (Homo sapiens (Human), UniProt Q92918, S171E/T165E) (Q92918 whole entry T165E/S171E): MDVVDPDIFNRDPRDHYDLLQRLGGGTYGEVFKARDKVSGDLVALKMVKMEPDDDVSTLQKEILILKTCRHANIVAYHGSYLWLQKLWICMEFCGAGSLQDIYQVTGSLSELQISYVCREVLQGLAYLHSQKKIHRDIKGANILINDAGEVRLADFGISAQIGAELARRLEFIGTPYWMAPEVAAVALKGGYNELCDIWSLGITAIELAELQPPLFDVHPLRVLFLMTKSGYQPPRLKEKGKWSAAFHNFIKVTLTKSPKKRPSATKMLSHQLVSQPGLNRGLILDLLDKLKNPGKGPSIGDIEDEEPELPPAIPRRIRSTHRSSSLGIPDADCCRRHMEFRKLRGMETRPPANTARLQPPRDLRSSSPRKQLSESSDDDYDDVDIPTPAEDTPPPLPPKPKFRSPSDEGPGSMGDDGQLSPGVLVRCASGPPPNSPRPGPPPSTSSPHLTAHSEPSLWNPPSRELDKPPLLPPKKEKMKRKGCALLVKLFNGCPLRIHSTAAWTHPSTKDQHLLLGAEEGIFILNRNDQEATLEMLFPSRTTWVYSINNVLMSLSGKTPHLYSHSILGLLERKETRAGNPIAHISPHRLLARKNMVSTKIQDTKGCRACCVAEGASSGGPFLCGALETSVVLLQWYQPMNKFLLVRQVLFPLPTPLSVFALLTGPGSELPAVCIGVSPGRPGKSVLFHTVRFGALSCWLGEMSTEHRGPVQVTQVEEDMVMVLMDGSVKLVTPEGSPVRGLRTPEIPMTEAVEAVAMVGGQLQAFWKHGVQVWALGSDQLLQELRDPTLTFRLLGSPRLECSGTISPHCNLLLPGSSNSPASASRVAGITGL

The first test concerns the target HPK1 (Homo sapiens (Human), UniProt Q92918, S171E/T165E). As to the kind of experiment: HPK1-FL HTRF Enzymatic Assay (HTRF). The format is biochemical. The following applies: HPK full length T165E S171E 0.125 nM, ATP 1 mM, Biotin-SLP76 100 nM, read-out: HPK1 Ki (nM), H = HTRF. A digest of the protocol:
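Ki derived from % activity calculated from the TR-FRET 665/620 ratio, using Eu-anti-pSLP76 and SA-XL665 detection added for 60 min. Reaction: compound preincubated 30 min with full-length double-mutant HPK1, then 60 min with Biotin-SLP-76 and 1 mM ATP, pH 7.5 HEPES buffer.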
The Ki is the equilibrium dissociation constant of an inhibitor or competing ligand from its target. `Cc1c(N)cncc1-c1cc2cc(Nc3cc4n(n3)CC(=O)N([C@@H](C)C#N)CC4)ncc2cc1F` (single isomer, unassigned) [Compound 154a]: the Ki is 0.014 nM.
Still for that read-out and setting: with `CN[C@H]1CCc2c(-c3cc4cc(Nc5cc6n(n5)CC(=O)N(C)CC6)ncc4cc3F)cncc21` (single isomer, unassigned) [Compound 228b] the figure was 446 nM; with `Cc1c(-c2cc3cc(Nc4cc5n(n4)CC(=O)N(C)CC5)ncc3cc2F)cnc2c1CCCO2` [Compound 190, 2-((7-fluoro-6-(5-methyl-3,4-dihydro-2H-pyrano[2,3-b]pyridin-6-yl)isoquinolin-3-yl)amino)-6-methyl-5,6-dihydro-4H-pyrazolo[1,5-d][1,4]diazepin-7(8H)-one], 0.24 nM.
The same measure, in the same setting: for `Cc1c(N)cncc1-c1cc2cc(Nc3cc4n(n3)Cc3nccn3CC4)ncc2c(F)c1F` [Compound 157, N-(6-(5-amino-4-methylpyridin-3-yl)-7,8-difluoroisoquinolin-3-yl)-5,6-dihydro-11H-imidazo[1,2-a]pyrazolo[1,5-d][1,4]diazepin-8-amine] the value was 0.014 nM.
Same read-out and setting: with `Cc1cc(S(C)(=N)=O)ncc1-c1cc2cc(Nc3cc4n(n3)CC(=O)N(C)CC4)ncc2cc1F` (stereo not shown) [Compound 178, 2-((7-fluoro-6-(4-methyl-6-(S-methylsulfonimidoyl)pyridin-3-yl)isoquinolin-3-yl)amino)-6-methyl-5,6-dihydro-4H-pyrazolo[1,5-d][1,4]diazepin-7(8H)-one] the figure was 23.7 nM; with `Cc1c(-c2cc3cc(Nc4cc5n(n4)CC(=O)N(C(C)C)CC5)ncc3c(F)c2F)cnc2c1NCCO2` [Compound 135, 2-((7,8-difluoro-6-(8-methyl-2,3-dihydro-1H-pyrido[2,3-b][1,4]oxazin-7-yl)isoquinolin-3-yl)amino)-6-isopropyl-5,6-dihydro-4H-pyrazolo[1,5-d][1,4]diazepin-7(8H)-one], 0.038 nM; with `Cc1c(N)cncc1-c1cc2cc(Nc3cc4n(n3)CC(=O)N(C(C)CO)CC4)ncc2cc1F` (single isomer, unassigned) [Compound 149b], 0.019 nM.
In the case of `Cc1c(NS(=O)(=O)C2CC2)cncc1-c1cc2cc(Nc3cc4n(n3)CC(=O)N(C)CC4)ncc2cc1F` [Compound 197, N-(5-(7-fluoro-3-((6-methyl-7-oxo-5,6,7,8-tetrahydro-4H-pyrazolo[1,5-d][1,4]diazepin-2-yl)amino)isoquinolin-6-yl)-4-methylpyridin-3-yl)cyclopropanesulfonamide], the Ki worked out at 4.1 nM.
The same measure, in the same setting: with `Cc1c(-c2cc3cc(Nc4cc5n(n4)CC(=O)N(C)CC5)ncc3cc2F)cnc2c(=O)n(C)[nH]c12` [Compound 209, 2-((6-(2,7-dimethyl-3-oxo-2,3-dihydro-1H-pyrazolo[4,3-b]pyridin-6-yl)-7-fluoroisoquinolin-3-yl)amino)-6-methyl-5,6-dihydro-4H-pyrazolo[1,5-d][1,4]diazepin-7(8H)-one] the figure was 1.9 nM; with `Cc1c(-c2cc3cc(Nc4cc5n(n4)CC(=O)N(C(C)C#N)CC5)ncc3cc2F)cnc2c1NCCO2` (single isomer, unassigned) [Compound 147b], 0.013 nM; with `Cc1c(-c2cc3cc(Nc4ccn([C@H](C)C#N)n4)ncc3cc2F)cnc2c1NCCO2` (single isomer, unassigned) [Compound 109a, 2-(3-((7-fluoro-6-(8-methyl-2,3-dihydro-1H-pyrido[2,3-b][1,4]oxazin-7-yl)isoquinolin-3-yl)amino)-1H-pyrazol-1-yl)propanenitrile], 2.17 nM.
On the same count and under the same terms, for `CNCc1cccc(-c2cc3cc(Nc4cc5n(n4)CC(=O)N(C)CC5)ncc3cc2F)c1C` [Compound 217, 2-((7-fluoro-6-(2-methyl-3-((methylamino)methyl)phenyl)isoquinolin-3-yl)amino)-6-methyl-5,6-dihydro-4H-pyrazolo[1,5-d][1,4]diazepin-7(8H)-one] the value was 64 nM; for `Cc1c(-c2cc3cc(Nc4cc5n(n4)Cc4nccn4CC5)ncc3cc2F)cnc2c1NCC[C@H]2O` (single isomer, unassigned) [Compound 243b], 0.02 nM.
As for `Cc1c(-c2cc3cc(Nc4cc5n(n4)CC(=O)N(C(C)C)CC5)ncc3c(Cl)c2F)cnc2c1NCCO2` [Compound 115, 2-((8-chloro-7-fluoro-6-(8-methyl-2,3-dihydro-1H-pyrido[2,3-b][1,4]oxazin-7-yl)isoquinolin-3-yl)amino)-6-isopropyl-5,6-dihydro-4H-pyrazolo[1,5-d][1,4]diazepin-7(8H)-one], the Ki was 0.2 nM.
In the case of `Cc1c(-c2cc3cc(Nc4cc5n(n4)CC(=O)NCC5)ncc3cc2F)cnc2c1NC(C)CO2` (racemic) [Compound 182, (+/−)-2-((6-(2,8-dimethyl-2,3-dihydro-1H-pyrido[2,3-b][1,4]oxazin-7-yl)-7-fluoroisoquinolin-3-yl)amino)-5,6-dihydro-4H-pyrazolo[1,5-d][1,4]diazepin-7(8H)-one], the inhibitory constant (Ki) worked out at 0.073 nM.
On the same count and under the same terms, with `Cc1c(-c2cc3cc(Nc4cc5n(n4)CC(=O)N(C)CC54CC4)ncc3cc2F)cnc2c1NCC[C@@]2(C)O` (single isomer, unassigned) [Compound 229b] the figure was 0.016 nM.
On the same count and under the same terms, for `Cc1c(-c2cc3cc(Nc4cc5n(n4)CC(=O)N(C)CC5)ncc3cc2F)cnc2c1NCC(C)(C)[C@@H]2O` (single isomer, unassigned) [Compound 241b] the value was 0.265 nM; for `Cc1c(-c2cc3cc(Nc4cc5n(n4)CC(=O)N(C)CC5)ncc3cc2F)cnc2c1NCC[C@H]2O` (single isomer, unassigned) [Compound 236b], 0.062 nM; for `Cc1[nH]ncc1-c1cc2cc(Nc3cc4n(n3)CC(=O)N(C)CC4)ncc2c(O)c1F` [Compound 202, 2-((7-fluoro-8-hydroxy-6-(5-methyl-1H-pyrazol-4-yl)isoquinolin-3-yl)amino)-6-methyl-5,6-dihydro-4H-pyrazolo[1,5-d][1,4]diazepin-7(8H)-one], 119 nM.
Consider `Cc1c(-c2cc3cc(Nc4cc5n(n4)CC(=O)N(C)CC5)ncc3cc2F)cnc2c1[C@@](C)(O)CCO2` (single isomer, unassigned) [Compound 226a], for which the Ki came to 18 nM.
Still for that read-out and setting: with `Cc1c(-c2cc3cc(Nc4cc5n(n4)CC(=O)N(C)CC5)ncc3cc2F)cnc2cn[nH]c12` [Compound 186, 2-((7-fluoro-6-(7-methyl-1H-pyrazolo[4,3-b]pyridin-6-yl)isoquinolin-3-yl)amino)-6-methyl-5,6-dihydro-4H-pyrazolo[1,5-d][1,4]diazepin-7(8H)-one] the figure was 0.12 nM.

The target of another test is HPK1 (Homo sapiens (Human), UniProt Q92918). The test is described as follows: HPK1 Lantha Binding Assay (Lanth). The following applies: 2 nM HPK1, 15 nM Tracer222, Morrison Ki fit, read-out: HPK1 Ki (nM), L = Lanth. How it is done:
Example B2: HPK1 Lantha Binding Assay (“Lanth”)
Procedure: I. Compound Dilution:
The compounds to be tested were diluted by preparing 12.5 uL/well of 5 mM compound (100×) in columns 2 and 13 and 10 ul/well of DMSO in columns 3-12, 14-23, and wells A1-H1 and I24-P24 of the compound plate using a Bravo liquid handling platform. For the reference compound, the top concentration was 1 mM. To the plate was added 10 ul 2 mM staurosporine in wells J1-P1 and A24-H24. A 11 point 5-fold compound serial dilution was performed using the Bravo liquid handling platform. From the plate were transferred 2.5 ul of the solutions from column 2 and column 13 to the 10 ul of DMSO in columns 3 and 14 & so on. The compound plate was centrifuged at 2500 rpm for 1 min. From the compound plate was transferred 80 nl of the compounds into an assay plate using the Echo liquid handler system. One compound plate makes two assay plates. Each assay plate is sealed and stored in an N2 cabinet.
The following assay concentrations and times were used: 2 nM HPK1, 2 nM Eu-Anti-GST Ab, and 15 nM Tracer222, with 60 min incubation time.
III. HPK Lantha Binding Assay:
For the binding assay, 4 ul 2X HPK1 and Eu-anti-GST antibody were added to each well of the assay plate using a Multidrop reagent dispenser. The solutions were incubated in a 23 C incubator for 1 h. To each well of the assay plate was added 4 ul 2× Tracer-222 using a Multidrop reagent dispenser. The solutions were again incubated in a 23 C incubator for 1 h. The results of the assay were read using an Envision plate reader with the following parameters:TR_FRET, 340ex/615 and 665em; 100 usec Delay; and 200 usec integration.
Compound Ki was analyzed using Morrison ki fit model in XL-fit • a. fit=(1-((((E+x)+(Ki*(1+(S/Kd))))−(((((E+x)+(Ki*(1+(S/Kd))))^2)−((4*E)*x))^0.5))/(2*E))) • res=(y-fit) • b. Parameters: • E=enzyme concentration • S=Tracer222 concentration, Kd=Tracer222 Kd • All measurements reported using the same units (uM)
Exemplary compounds were tested in the binding assays.
Turning to `Cc1cc(Nc2cc3cc(-c4cnccc4C)ccc3cn2)ncn1` [Compound 107, 6-(4-methylpyridin-3-yl)-N-(6-methylpyrimidin-4-yl)isoquinolin-3-amine], the inhibition constant (Ki) turned out to be 9 nM.
On the same count and under the same terms, for `Fc1cccc(Cl)c1-c1ccc2cnc(Nc3ccncn3)cc2c1` [Compound 104, 6-(2-chloro-6-fluorophenyl)-N-(pyrimidin-4-yl)isoquinolin-3-amine] the value was 57 nM; for `CN1CCC(Cn2cc(Nc3cc4cc(-c5c(Cl)cccc5Cl)ccc4cn3)cn2)C1` (racemic) [Compound 102, (+/-)-6-(2,6-dichlorophenyl)-N-(1-((1-methylpyrrolidin-3-yl)methyl)-1H-pyrazol-4-yl)isoquinolin-3-amine], 68 nM.
Same read-out and setting: with `Clc1cccc(Cl)c1-c1ccc2cnc(Nc3cnn(C4CCOC4)c3)cc2c1` (racemic) [Compound 103, (+/-)-6-(2,6-dichlorophenyl)-N-(1-(tetrahydrofuran-3-yl)-1H-pyrazol-4-yl)isoquinolin-3-amine] the figure was 180 nM; with `Cc1ccnc(Nc2cc3cc(-c4cnccc4C)ccc3cn2)c1` [Compound 108, N-(4-methylpyridin-2-yl)-6-(4-methylpyridin-3-yl)isoquinolin-3-amine], 4.4 nM; with `Cc1ccncc1-c1ccc2cnc(Nc3cc(C(F)F)ccn3)cc2c1` [Compound 106, N-(4-(difluoromethyl)pyridin-2-yl)-6-(4-methylpyridin-3-yl)isoquinolin-3-amine], 6.6 nM.
For `Clc1cccc(Cl)c1-c1ccc2cnc(Nc3ccncn3)cc2c1` [Compound 101, 6-(2,6-dichlorophenyl)-N-(pyrimidin-4-yl)isoquinolin-3-amine], the inhibition constant (Ki) worked out at 110 nM.
